Results published in the supplement of paper PMC10307832.

What was measured:
Assay in all cases: relative viability (nuclei count vs DMSO), 5 days (fraction); higher = more cells survive
KN-93 + Trametinib = compound: CN(C/C=C/C1=CC=C(C=C1)Cl)CC2=CC=CC=C2N(CCO)S(=O)(=O)C3=CC=C(C=C3)OC [KN-93] + CC(=O)Nc1cccc(-n2c(=O)n(C3CC3)c(=O)c3c(Nc4ccc(I)cc4F)n(C)c(=O)c(C)c32)c1 [Trametinib] (partner 0.02 µM)
Procedure, shortened: (§1)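 Dosing by pin tool came one day after lung cancer cell lines were seeded in 1536-well plates, using either one drug or a fixed anchor-drug dose plus five library-drug doses (not always all listed) in √10 steps. After 5 days, nuclei were counted on 4× images. Relative viability is treated-well nuclei count divided by vehicle-well nuclei count, and values are medians of duplicate plates.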

KN-93 + Navitoclax = compound: CN(C/C=C/C1=CC=C(C=C1)Cl)CC2=CC=CC=C2N(CCO)S(=O)(=O)C3=CC=C(C=C3)OC [KN-93] + CC1(C)CCC(c2ccc(Cl)cc2)=C(CN2CCN(c3ccc(C(=O)NS(=O)(=O)c4ccc(N[C@H](CCN5CCOCC5)CSc5ccccc5)c(S(=O)(=O)C(F)(F)F)c4)cc3)CC2)C1 [Navitoclax] (partner 0.5 µM)
Procedure, shortened: as §1

KN-93 + OSI-027 = compound: CN(C/C=C/C1=CC=C(C=C1)Cl)CC2=CC=CC=C2N(CCO)S(=O)(=O)C3=CC=C(C=C3)OC [KN-93] + COc1cccc2cc(-c3nc([C@H]4CC[C@H](C(=O)O)CC4)n4ncnc(N)c34)[nH]c12 [OSI-027] (partner 0.5 µM)
Procedure, shortened: as §1

KN-93 + Tozasertib = compound: CN(C/C=C/C1=CC=C(C=C1)Cl)CC2=CC=CC=C2N(CCO)S(=O)(=O)C3=CC=C(C=C3)OC [KN-93] + Cc1cc(Nc2cc(N3CCN(C)CC3)nc(Sc3ccc(NC(=O)C4CC4)cc3)n2)n[nH]1 [Tozasertib] (partner 0.1 µM)
Procedure, shortened: as §1

KN-93 + Olaparib = compound: CN(C/C=C/C1=CC=C(C=C1)Cl)CC2=CC=CC=C2N(CCO)S(=O)(=O)C3=CC=C(C=C3)OC [KN-93] + O=C(c1cc(Cc2n[nH]c(=O)c3ccccc23)ccc1F)N1CCN(C(=O)C2CC2)CC1 [Olaparib] (partner 8 µM)
Procedure, shortened: as §1

| Cell Line | relative viability (KN-93 + Trametinib; first compound 0.08 µM) | relative viability (KN-93 + Trametinib; first compound 0.253 µM) | relative viability (KN-93 + Trametinib; first compound 2.53 µM) | relative viability (KN-93 + Trametinib; first compound 8 µM) | relative viability (KN-93 + Navitoclax; first compound 0.08 µM) | relative viability (KN-93 + Navitoclax; first compound 0.253 µM) | relative viability (KN-93 + Navitoclax; first compound 2.53 µM) | relative viability (KN-93 + Navitoclax; first compound 8 µM) | relative viability (KN-93 + OSI-027; first compound 0.08 µM) | relative viability (KN-93 + OSI-027; first compound 0.253 µM) | relative viability (KN-93 + OSI-027; first compound 2.53 µM) | relative viability (KN-93 + OSI-027; first compound 8 µM) | relative viability (KN-93 + Tozasertib; first compound 0.08 µM) | relative viability (KN-93 + Tozasertib; first compound 0.253 µM) | relative viability (KN-93 + Tozasertib; first compound 2.53 µM) | relative viability (KN-93 + Tozasertib; first compound 8 µM) | relative viability (KN-93 + Olaparib; first compound 0.08 µM) | relative viability (KN-93 + Olaparib; first compound 0.253 µM) | relative viability (KN-93 + Olaparib; first compound 2.53 µM) | relative viability (KN-93 + Olaparib; first compound 8 µM) |
| --- | --- | --- | --- | --- | --- | --- | --- | --- | --- | --- | --- | --- | --- | --- | --- | --- | --- | --- | --- | --- |
| HCC-78 | 0.708 | 0.68 | 0.808 | 0.711 | 0.699 | 0.833 | 0.778 | 0.375 | 0.388 | 0.315 | 0.387 | 0.339 | 0.392 | 0.369 | 0.369 | 0.382 | 0.725 | 0.976 | 0.807 | 0.726 |
| HCC-366 | 0.258 | 0.305 | 0.336 | 0.162 |  | 1.35 | 1.1 | 0.907 | 0.758 | 0.696 | 0.894 | 0.235 | 0.0849 | 0.0834 | 0.111 | 0.0411 | 0.298 | 0.318 | 0.422 | 0.2 |
| HCC-827 | 0.539 | 0.546 | 0.491 | 0.426 | 1.04 | 0.986 | 0.98 | 0.872 | 0.729 | 0.777 | 0.991 | 0.565 | 0.445 | 0.492 | 0.404 | 0.337 | 0.745 | 0.556 | 0.704 | 0.608 |
| HOP-62 | 0.358 | 0.378 | 0.375 | 0.276 | 1.01 | 0.897 | 1.38 | 0.904 | 0.855 | 1.08 | 1.07 | 0.537 | 0.395 | 0.44 | 0.401 | 0.273 | 0.325 | 0.401 | 0.0964 | 0.545 |
| IA-LM |  |  |  |  | 0.975 | 0.826 | 1.23 | 0.439 |  |  |  |  |  |  |  |  | 1.05 | 0.656 | 0.933 | 0.579 |
| LC-2-ad | 0.794 | 0.989 | 0.88 | 0.75 | 0.425 | 0.414 | 0.364 | 0.129 | 0.874 | 0.964 | 0.842 | 0.707 | 0.444 | 0.393 | 0.483 | 0.389 | 0.687 | 0.739 | 0.733 | 0.62 |
| LCLC-97TM1 | 0.185 | 0.181 | 0.163 | 0.153 | 0.287 |  | 0.527 | 0.238 | 0.461 | 0.634 | 0.561 | 0.353 | 0.254 | 0.229 | 0.226 | 0.194 | 0.308 | 0.368 | 0.449 | 0.242 |
| LCLC-103H | 0.692 | 0.678 | 0.609 | 0.551 |  |  |  |  | 0.446 | 0.455 | 0.356 | 0.309 | 0.427 | 0.501 | 0.434 | 0.376 | 0.701 | 0.859 | 0.758 | 0.558 |
| LK-2 | 0.715 | 0.867 | 0.929 | 0.78 | 0.743 | 0.677 | 1.12 | 0.567 | 0.207 | 0.182 | 0.189 | 0.165 | 0.212 | 0.191 | 0.163 | 0.158 | 0.79 | 0.643 | 0.89 | 0.582 |
| LOU-NH91 | 0.789 | 0.677 | 0.822 | 0.716 | 0.621 | 0.63 | 0.709 | 0.545 | 0.663 | 0.565 | 0.827 | 0.65 | 0.618 | 0.663 | 0.586 | 0.477 | 0.901 | 0.809 | 0.976 | 0.847 |
| LU99A | 0.603 | 0.626 | 0.496 | 0.431 | 0.86 | 0.787 | 0.763 | 0.609 | 0.327 | 0.273 | 0.27 | 0.275 | 0.239 | 0.287 | 0.246 | 0.212 | 0.257 | 0.271 | 0.244 | 0.264 |
| NCI-H358 | 0.147 | 0.133 | 0.132 | 0.112 |  |  |  |  | 0.74 | 0.653 | 0.831 | 0.421 | 0.1 | 0.105 | 0.089 | 0.103 | 0.678 | 0.638 | 0.608 | 0.502 |
| NCI-H522 | 0.997 | 0.855 | 0.794 | 0.595 |  |  |  |  | 0.824 | 0.746 | 0.801 | 0.558 | 0.551 | 0.536 | 0.566 | 0.511 | 0.61 | 0.607 | 0.576 | 0.649 |
| NCI-H650 | 0.933 | 1.08 | 0.998 | 0.794 |  |  |  |  | 0.502 | 0.536 | 0.576 | 0.443 | 0.738 | 0.762 | 0.694 | 0.523 | 0.425 | 0.366 | 0.368 | 0.397 |
| NCI-H661 | 0.525 | 0.563 | 0.472 | 0.383 |  |  |  |  | 0.693 | 0.741 | 0.606 | 0.273 | 0.365 | 0.355 | 0.342 | 0.36 | 0.577 | 0.951 | 0.64 | 0.4 |
| NCI-H1563 |  |  |  |  |  |  |  |  | 0.841 | 0.789 | 0.745 | 0.566 |  |  |  |  |  |  |  |  |
| NCI-H1703 |  |  |  |  | 0.936 | 1.11 | 1.04 | 0.179 |  |  |  |  |  |  |  |  | 0.432 |  | 0.372 | 0.181 |
| NCI-H1792 | 0.277 | 0.441 | 0.487 | 0.275 |  | 0.705 | 0.75 | 0.492 | 0.527 | 0.651 | 0.768 | 0.664 |  |  |  |  | 0.351 | 0.312 | 0.392 | 0.311 |
| SW 900 | 0.93 | 0.835 | 1.04 | 0.643 |  |  |  |  | 0.571 | 0.438 | 0.624 | 0.411 | 0.529 | 0.544 | 0.598 | 0.368 | 1.13 | 0.766 | 1.13 | 0.559 |
